Series [1] concerns HT29 cells. The experiment in a line: WST-8 cytotoxicity assay. The class given is cell-based, human. To be noted: 5, 10 and 20 µM, 24 h (Figure S4); n = 5. Here is the method: (§1) Figure 2 In vitro cellular evaluations of ZWPro in cancer cells. a) Cytotoxicity assay showing HT29, MCF7, L929, and NIH3T3 cells treated with 20 µM of ZW and ZWPro for 2 and 24 h, respectively, followed by an assessment of cell viability using the water‐soluble tetrazolium assay (n = 5, mean ± s.e.m.). b) Cellular uptake and intracellular endosomal localization of ZW and ZWPro were observed by treating HT29 and L929 cells with 20 µM of ZW and ZWPro. […] The internalization index was determined in 2–9 photographic areas (ns, not significant, *p < 0.05 based on two‐way analysis of variance followed by Bonferroni's multiple comparison test). c) Inhibition assay of cellular uptake of ZWPro to determine the entry mechanisms in HT29 cells. […] The co‐localizing pixels (%) were calculated by dividing the area of overlap between ZWPro and LysoTracker by the total area of the LysoTracker, respectively. […]
(§2) To evaluate the cytotoxicity of ZW and ZWPro in cancer and normal cells, HT29, MCF7, L929, and NIH 3T3 cells were collected by trypsinization and resuspended in 96‐well plates at a concentration of 10 000 cells/well in fresh growth media and incubated for 1 d at 37 °C under 5% CO2 conditions. […] Absorption was subsequently measured at 450 nm on a microplate reader (Thermo Scientific, Varioskan LUX multimode). […]

The subject of series [2] is MCF7 cells. The experiment in a line: WST-8 cytotoxicity assay. Conditions: 5, 10 and 20 µM, 24 h (Figure S4); n = 5. In kind it is cell-based. The method, then:
as §1, §2
Background: Tetrazolium assays rely on reduction of a dye to a coloured formazan, in cell work by metabolically active cells.

Series [3] relates to L929 cells. Kind of series: WST-8 cytotoxicity assay. The class given is cell-based, mouse. Conditions: 5, 10 and 20 µM, 24 h (Figure S4); n = 5. The method, then:
(§3) Figure 2 In vitro cellular evaluations of ZWPro in cancer cells. a) Cytotoxicity assay showing HT29, MCF7, L929, and NIH3T3 cells treated with 20 µM of ZW and ZWPro for 2 and 24 h, respectively, followed by an assessment of cell viability using the water‐soluble tetrazolium assay (n = 5, mean ± s.e.m.). b) Cellular uptake and intracellular endosomal localization of ZW and ZWPro were observed by treating HT29 and L929 cells with 20 µM of ZW and ZWPro. […] The internalization index was determined in 2–9 photographic areas (ns, not significant, *p < 0.05 based on two‐way analysis of variance followed by Bonferroni's multiple comparison test). c) Inhibition assay of cellular uptake of ZWPro to determine the entry mechanisms in HT29 cells. Cultured cells were incubated with bromsulphthalein for 20 min and then incubated with ZWPro (20 µM) in media for 15 min. Data are presented as means ± standard deviations (n = 7–8) **p < 0.01 based on Welch's t‐test. d) Findings from HT29 human colorectal adenocarcinoma cells and L929 fibroblast cell lines co‐stained with the lysosome marker LysoTracker Green. Co‐localization occurs at specific time intervals during imaging. The co‐localizing pixels (%) were calculated by dividing the area of overlap between ZWPro and LysoTracker by the total area of the LysoTracker, respectively. Scale bars: 10 µm.
(§4) To evaluate the cytotoxicity of ZW and ZWPro in cancer and normal cells, HT29, MCF7, L929, and NIH 3T3 cells were collected by trypsinization and resuspended in 96‐well plates at a concentration of 10 000 cells/well in fresh growth media and incubated for 1 d at 37 °C under 5% CO2 conditions. After the cells were completely attached to the walls, the original medium was discarded and replaced with a 200 µL fresh culture medium which contained different concentrations of ZW and ZWPro. Cells were then cultured in a constant temperature incubator for 2 and 24 h. EZ‐Cytox solution (10%) was then added to each well, and the plates were incubated at 37 °C in a 5% CO2 incubator for 2 h in the dark. Cells were then exposed to a digital orbital shaker (Scilab Instruments Co, No. SSO‐2D) at 200 rpm. Absorption was subsequently measured at 450 nm on a microplate reader (Thermo Scientific, Varioskan LUX multimode). […] Statistical analysis was conducted using the software GraphPad Prism 8.

The subject of series [4] is NIH 3T3 cells. The experiment in a line: WST-8 cytotoxicity assay. The class given is cell-based, mouse. To be noted: 5, 10 and 20 µM, 24 h (Figure S4); n = 5. The method, then: as §3, §4
The nature of series [5]: Photostability test under 760 nm laser. To be noted: all tested solvents, up to 4 h. In kind it is physicochemical. Here is the method: Photostability assay was conducted to compare ZW800‐1C with ZWPro in PBS and also evaluated ZWPro in distilled water and 10% FBS in PBS exposed to continuous irradiation using a 760 nm laser diode at 4 mW cm^−2, with white light (400–650 nm) at 40 000 lux and imaged up to 4 h. The fluorescence intensity (FI) signal (%) was calculated by measured values with ImageJ version 1.53t using images captured at each time point. Fluorescence values of the quenching assay were conducted at different concentration points at 0 and 4 h to determine the quenching concentration and to assess any significant photodegradation or photobleaching effects.
The data, presented as mean ± SD, assessed the fluorescence image by measuring regions of interest (ROI) and comparing fluorescence intensity against the initial fluorescence signal.
Figure S3. Optical property characterization of the ZWPro (a) Absorbance and Fluorescence spectra of ZWPro and optical properties of Pro, ZW800-1C, and ZWPro. (b) Stability test of ZWPro with PBS and 10% FBS in PBS until 24 h at 37 °C incubator. (c) Fluorescence image and value are used to determine quenching concentration under a 760nm channel of different concentrations of ZWPro depending on time. Photostability test of (d) ZW800-1C and ZWPro in PBS. (e) Photostability test of ZWPro in different solvents. DW: Distilled water, 10% FBS: Fetal bovine serum in PBS. […]

The test system of series [6] is HT29 cells. The experiment in a line: Cellular uptake by fluorescence microscopy. To be noted: 20 µM, 2 h, 37 °C; NIR fluorescence microscopy. The class given is cell-based, human. The method, then:
(§5) Figure 2 In vitro cellular evaluations of ZWPro in cancer cells. a) Cytotoxicity assay showing HT29, MCF7, L929, and NIH3T3 cells treated with 20 µM of ZW and ZWPro for 2 and 24 h, respectively, followed by an assessment of cell viability using the water‐soluble tetrazolium assay (n = 5, mean ± s.e.m.). b) Cellular uptake and intracellular endosomal localization of ZW and ZWPro were observed by treating HT29 and L929 cells with 20 µM of ZW and ZWPro. […] The internalization index was determined in 2–9 photographic areas (ns, not significant, *p < 0.05 based on two‐way analysis of variance followed by Bonferroni's multiple comparison test). c) Inhibition assay of cellular uptake of ZWPro to determine the entry mechanisms in HT29 cells. Cultured cells were incubated with bromsulphthalein for 20 min and then incubated with ZWPro (20 µM) in media for 15 min. […] The co‐localizing pixels (%) were calculated by dividing the area of overlap between ZWPro and LysoTracker by the total area of the LysoTracker, respectively. […]
(§6) Fluorescence microscopic assessments were performed to compare the intracellular uptake of ZW and ZWPro in cancerous and normal cells. […] The fluorescent intensity of each cell was measured using ImageJ (version 1.51j8, National Institutes of Health, Bethesda, MD, USA). The outline of each cell was determined on a phase‐contrast image.

Series [7] has as its system L929 cells. Kind of series: Cellular uptake by fluorescence microscopy. In kind it is cell-based, mouse. Conditions: 20 µM, 2 h, 37 °C; NIR fluorescence microscopy. The method, then: as §5, §6
The subject of series [8] is MCF7 cells. Kind of series: Cellular uptake by fluorescence microscopy. The class given is cell-based. Conditions: 20 µM, 2 h, 37 °C; fluorescent microscopy. The method, then:
(§7) Fluorescence microscopic assessments were performed to compare the intracellular uptake of ZW and ZWPro in cancerous and normal cells. Two sets of cathepsin B‐expressing cancer cells (HT29 and MCF7) and 2 sets of normal cells (L929 and NIH3T3) were seeded in a confocal dish and incubated at 37 °C for 1 d before treatment. Subsequently, 20 µM ZWPro and ZW were added to the cells for 2 h. Subsequently, 50 nM of LysoTracker Green (a fluorescent dye that selectively labels lysosomes) was added for 30 min. Following incubation with the dye, the cells were resuspended with fresh media after they were rinsed 3 times with 1X PBS to remove any remaining dye, and imaging was performed. To determine the role of organic anion transporter peptides (OATPs) in the ZWPro uptake process, HT29 cells were pretreated with BSP (250 µM, Sigma–Aldrich, 167 207) for 20 min in the inhibition assay. Cells were then incubated with 20 µM of ZWPro at 37 °C for 15 min. After washing, cell images were obtained. Images were obtained using a Nikon Eclipse inverted microscope, DS‐Ri2, or DS‐Qi2 (Ex/Em, 754/774 nm; exposure time, 2 s). The fluorescent intensity of each cell was measured using ImageJ (version 1.51j8, National Institutes of Health, Bethesda, MD, USA). The outline of each cell was determined on a phase‐contrast image.
(§8) Figure S5. Cellular uptake and intracellular localization of ZW and ZWPro. […]

The subject of series [9] is NIH3T3 cells. The experiment in a line: Cellular uptake by fluorescence microscopy. In kind it is cell-based, mouse. To be noted: 20 µM, 2 h, 37 °C; fluorescent microscopy. Here is the method: as §7, §8
In series [10] the test system is HT29 tumor-bearing mice. The experiment in a line: Time-dependent in vivo NIR tumor imaging and biodistribution. To be noted: 20 nmol i.v., real-time NIR fluorescence imaging. An excerpt:
Figure 4 In vivo, tumor growth inhibition and studies in tumor‐induced mice subcutaneously injected with HT29 cells and treated with ZWPro. a) Schematic of the treatment schedule and experimental design of PBS, ZW, and ZWPro. Biodistribution and pharmacokinetic (PK) parameters of targeted ZW and ZWPro in normal mice. PK parameters of ZW and ZWPro (0.3 µmol kg^−1) (t1/2α; distribution half‐life, t1/2β; elimination half‐life, AUC; area under the curve, Vd volume of distribution, and urinary excretion (% injected dose, %ID)) were calculated using the software Prism 9. Urinary excretion occurred at 48 h post‐injection (n = 2–3 per group, mean ± s.e.m.). (b) In total, 20 nmol of each compound was injected into BLAB/C nude mice (weights = 20–25 g) and time‐dependent imaging was performed post‐injection. c) Color and NIR fluorescence in vivo images of ZW and ZWPro (0.3 µmol kg^−1) were taken at different time intervals. d) Tumor‐to‐background (TBR) ratios of tumors (white dotted circles in (c)) compared with muscles obtained from at each time point; and e) signal‐to‐background (SBR) outcomes were calculated using NIR images of resected organs at 48 h post‐injection. (Exposure time = 100 ms, n = 3, mean ± s.e.m.) The SBR was calculated by the fluorescence intensity of each organ (Or) against the system background (Exposure time = 1000 ms, n = 3, mean ± s.e.m.). […]

The subject of series [11] is HT29 tumor-bearing mice. The experiment in a line: In vivo tumor reduction test. Conditions: i.v. 50 nmol (9.5 mg kg−1) twice; weighed every other day for 30 days; versus control group. The method, then:
Owing to the cancer‐specific cytotoxicity of ZWPro, the in vivo tumor targetability and theranostic capacity of ZWPro were evaluated in HT29 tumor‐bearing mice. Preliminary studies were conducted to determine the optimal dosage of ZWPro to achieve effective anticancer activity. […] To investigate the antitumor impact, mice were intravenously injected with PBS (150 µL) (control group), and with ZWPro (150 µL) or ZW (150 µL, 50 nmol at 9.5 mg k^−1g). […] The tumor size increased slightly after the treatment on d 0. […] Stable mouse body weights were observed across all experimental groups. After 30 d of treatment with ZWPro, tumors were smaller than those in the ZW and PBS groups (Figure 4g).
Figure 4 In vivo, tumor growth inhibition and studies in tumor‐induced mice subcutaneously injected with HT29 cells and treated with ZWPro. a) Schematic of the treatment schedule and experimental design of PBS, ZW, and ZWPro. […] PK parameters of ZW and ZWPro (0.3 µmol kg^−1) (t1/2α; distribution half‐life, t1/2β; elimination half‐life, AUC; area under the curve, Vd volume of distribution, and urinary excretion (% injected dose, %ID)) were calculated using the software Prism 9. […] (Exposure time = 100 ms, n = 3, mean ± s.e.m.) The SBR was calculated by the fluorescence intensity of each organ (Or) against the system background (Exposure time = 1000 ms, n = 3, mean ± s.e.m.). […]

For series [12] the following is noted: cited from earlier work. An excerpt:
The zwitterionic fluorophore ZW (emitting NIR fluorescence at 800 nm) was synthesized as reported previously.^[ [6] ^] […] To create the ZWPro conjugate, ZW (1.2 equiv.) was covalently attached to Pro using N‐Hydroxysuccinimide (NHS) ester and led to a stable amide bond formation (Figure 1b). Pro peptides were en ...

Consider Protamine, for which the “toxicity (in words)” value in [1], in series [2], in series [3] and in series [4] was “negligible toxicity” in each case.
As for `CC1(C)C(/C=C/C2=C(c3ccc(CCC(=O)O)cc3)C(=C/C=C3/N(CCC[N+](C)(C)C)c4ccc(S(=O)(=O)O)cc4C3(C)C)/CCC2)=[N+](CCC[N+](C)(C)C)c2ccc(S(=O)(=O)O)cc21` [ZW, ZW800‐1C], the “photostability (in words)” value in [5] was “strong photostability”. Moreover, the “toxicity (in words)” value in series [1], in [2], in series [3] and in series [4] was “negligible toxicity” each time. Further, the “cellular uptake / internalization (in words)” value is “not internalized” in [6], “not internalized” in [7], “does not show internalization” in [8] and “does not show internalization” in series [9]. In addition, the “tumor targeting / accumulation (in words)” value in series [10] is “no tumor specificity or cell penetration ability”. Further, in [11], the “body weight change (in words)” value is “neither ZWPro nor ZW resulted in weight loss”. For the same molecule, the “plasma protein binding (in words)” value in [12] is on record as “low‐plasma protein binding”.
